Test results reported in patent publication US12280060B2, “Methods of treating cancer using neuronal activity inhibiting agents” (Washington University, priority 2021, dated 2025).
“Also recorded” adds a separate entry of the source.

What was measured:
[1] = tested on: neurofibromas; settings: cited from earlier work
[2] = tested on: Nf1+/neo RGC neurons; assay type: cell-based, mouse
[3] = tested on: Nf1+/neo hippocampal neurons; assay type: cell-based, mouse
[4] = tested on: Nf1+/neo DRG neurons; assay type: cell-based, mouse
[5] = tested on: midkine; assay type: cell-based, mouse
[6] = tested on: midkine; assay type: cell-based, mouse; remark: listed apart in the source
[7] = tested on: Col1a2; assay type: cell-based, mouse
[8] = tested on: RAS; assay type: cell-based, mouse
[9] = tested on: Nf1+/neo and Nf1-OPG mice; experiment: In vivo treatment: Mdk/midkine, Nlgn3, Adam10 expression in retinae and optic nerves; set-up: species or system mouse; settings: for effect on midkine expression in the RGC layer of retinae: 12-week-old Nf1-OPG mice, LTR or lovastatin in vivo; for effect on Nlgn3 RNA expression in vivo: retinae / optic nerves of Nf1+/neo or Nf1-OPG mice
Protocol: Supplementary Table 2) and TaqMan Fast Advanced Master Mix (Applied Biosystems) according to the manufacturer's instructions. All reactions were performed using the Bio-Rad CFX96 Real-Time PCR system equipped with Bio-Rad CFX Manager 3.1 software. Gene expression levels of technical replicates were estimated by ΔΔCt method using GAPDH or Gapdh (see e.g., TABLE 2) as reference genes. In total, 17 Nf1^flox/neo; GFAP-Cre (Nf1-OPG) mice were intraperitoneally administered vehicle (saline in 1% methylcellulose; n=9) or 25 mg/Kg body weight lamotrigine (Selleckchem; n=8) from four to six weeks of age, three times a week. The mice were then aged to 12 weeks for optic nerve and RGC analysis. […] The mice were analyzed at 12 weeks of age. […] These mice were analyzed at 24 weeks of age. […] These mice were analyzed at 12 weeks of age. For pNF analyses, Nf1^−/− DRG-NSCs were implanted in sciatic nerves of 8-week-old athymic nude mice as previously described. Briefly, the mice underwent surgery to create a pocket by displacing the quadriceps muscle and exposing their sciatic nerve. In all, 1×10^6 Nf1^−/− DRG-NSCs were implanted in the pocket around the sciatic nerve, such that the cells could be in direct contact with the nerve before the muscle and skin were sutured. Following recovery from the surgery, the mice were intraperitoneally administered vehicle (saline in 1% methylcellulose; n=5) or 25 mg/kg body weight lamotrigine (Selleckchem; n=5) three times a week for 6 weeks prior to histological analysis.

[10] = tested on: Nf1f/neo; hGFAP-Cre (Nf1-OPG) mice; experiment: In vivo Nf1-OPG (optic pathway glioma) progression; set-up: species or system mouse; settings: for optic nerve proliferation (% Ki67+ cells), fold decrease: mouse, in vivo
[11] = tested on: NF1-pNFs in athymic nude mice; experiment: In vivo pNF progression (Nf1-/- DRG-NSCs implanted in sciatic nerve); set-up: species or system mouse
[12] = tested on: Midkine; experiment: Mdk (Midkine transcript) levels in Nf1-mutant neurons; assay type: cell-based
Protocol: (§1) Nf1-mutant neurons were treated with the antiepileptic drug rufinamide. Treatment with rufinamide reduced Midkine expression (see e.g., FIG. 47) and neuronal excitability (see e.g., FIG. 48).

[13] = tested on: Nf1-mutant neurons; experiment: Excitability of Nf1-mutant neurons; assay type: cell-based
Protocol: as §1

[14] = tested on: human shNF1 Schwann cells; experiment: Human shNF1 Schwann cell proliferation (Ki67+); assay type: cell-based; settings: shNF1 SCs
[15] = tested on: Nf1-/- DRG-NSCs; experiment: Nf1-/- DRG-NSC proliferation (Ki67+); assay type: cell-based, mouse
[16] = tested on: COL1A2; experiment: COL1A2 RNA expression in human shNF1 Schwann cells; assay type: cell-based; settings: COL1A2 treatment
[17] = tested on: Col1a2; experiment: COL1A2 RNA expression in mouse Nf1-/- DRG-NSCs; assay type: cell-based; settings: COL1A2 treatment
[18] = tested on: WT and Nf1+/1809 RGC neurons; assay type: cell-based, mouse
[19] = Nf1-OPG mice, LTR 25 mg/kg/day intraperitoneally, vs vehicle
[20] = Nf1-OPG mice, lamotrigine intraperitoneal, 3 months of age, vs vehicle
[21] = 25 mg/kg intraperitoneal three times a week for 6 weeks
[22] = 25 mg/kg intraperitoneal three times a week for 6 weeks, listed as LTR

In the case of Cc1ccc(=O)n(-c2ccccc2)c1 [Pirfenidone], the “efficacy in human clinical trials” value [1] is given as “no efficacy”.
With NC1=N[C@H](O)[C@H]2[C@H]3O[C@]4(O)O[C@@H]([C@@H](O)[C@@]2(N1)[C@@H]4O)[C@]3(O)CO [TTX, tetrodotoxin] the “effect on AP firing rate / RGC activity” value [2] was “reduced”, the “neuronal activity (AP firing rate), fold decrease” value [2] was greater than 80 fold and the “effect on AP firing rates” value [3] was “reduced”. The “effect on DRG neuron AP firing rate / neuronal activity” value [4] was “reduce”, the “effect on midkine secretion / expression” value [5] was “reduced” and the “midkine levels, fold decrease” value [5] was 1.9 fold. The “effect on midkine expression / secretion” value [6] was “reduced”, the “Col1a2 secretion / expression, fold reduction” value [7] was 3.6 fold and the “reduction of Col1a2 secretion” value [7] was 73%. The “effect on RAS activity (RAS-GTP)” value [8] was “reduced”.
For Nc1nnc(-c2cccc(Cl)c2Cl)c(N)n1 [lamotrigine], the “effect on AP firing rate / RGC activity” value [2] was “reduced”, the “firing rates, % decrease” value [2] was greater than 80% and the “effect on AP firing rates” value [3] was “reduced”. The “effect on DRG neuron AP firing rate / neuronal activity” value [4] was “reduce”, the “effect on midkine secretion / expression” value [5] was “reduced” and the “midkine levels, fold decrease” value [5] was 2.2 fold. The “effect on midkine expression / secretion” value [6] was “reduced”, the “Col1a2 secretion / expression, fold reduction” value [7] was 1.8 fold and the “reduction of Col1a2 secretion” value [7] was 47%. The “effect on RAS activity (RAS-GTP)” value [8] was “reduced”, the “effect on midkine expression in the RGC layer of retinae” value [9] was “reduced” and the “effect on Mdk transcript relative expression in retinae” value ([9]; Nf1+/neo mice, LTR in vivo) was “decreased”. The “Mdk RNA and protein levels in retinae, fold decrease” value ([9]; Nf1+/neo retinae, lamotrigine in vivo, relative to vehicle) was 1.9-2.3 fold, the “Mdk levels in optic nerves, fold decrease” value ([9]; optic nerves, lamotrigine in vivo, relative to vehicle) was 1.7-2 fold and the “effect on Adam10 RNA expression in vivo” value ([9]; retinae / optic nerves of 12 week-old Nf1+/neo or Nf1-OPG mice, lamotrigine in vivo) was “did not change; also recorded: unchanged”. The “effect on Nlgn3 RNA expression in vivo” value ([9]; lamotrigine in vivo) was “did not change”, the “effect on Nlgn3 RNA expression in vivo” value ([9]; lamotrigine in vivo, listed as LTR) was “unaltered” and the “effect on CD3+ cells in optic nerves” value [10, 19] was “reduced”. The “effect on Iba1+ cells in optic nerves” value [10, 19] was “reduced”, the “effect on Ki67+ cells in optic nerves” value [10, 19] was “reduced” and the “effect on OPG development” value ([10]; Nf1-OPG mice, at 3 months of age) was “reduced”. The “effect on optic nerve volumes” value ([10]; Nf1-OPG mice, lamotrigine intraperitoneal, 3 months of age) was “did not decrease”, the “T-cell (CD3+ cells) content, fold decrease” value [10, 20] was 1.6 fold and the “microglia (% Iba1+ cells) content, fold decrease” value [10, 20] was 1.7 fold. The “optic nerve volumes relative to WT controls, fold increased” value ([10]; lamotrigine-treated Nf1-OPG mice) was 1.5 fold, the “optic nerve proliferation (% Ki67+ cells), fold decrease” value [10] was 1.5 fold and the “optic nerve proliferation (% Ki67+ cells), fold decrease” value ([10]; ip) was 5.7 fold. For the same compound, the “optic nerve proliferation (% Ki67+ cells), fold decrease” value ([10]; po, 10 mg/kg/day) was 4 fold, the “microglia (% Iba1+ cells) content, fold decrease” value ([10]; treatment from 4-8 weeks, 6 month-old Nf1-OPG mice, vs vehicle) was 1.4 fold and the “effect on Col1a2 production / immunoreactivity within the tumors” value [11, 21] was “reduced”. The “effect on neuronal histology (H&E)” value [11, 21] was “partly restored”, the “effect on pNF progression in vivo” value [11, 21] was “decreases” and the “effect on pNF size” value [11, 21] was “reduced”. The “effect on Col1a2 production / immunoreactivity within the tumors” value [11, 22] was “decreases”, the “effect on neuronal histology (H&E)” value [11, 22] was “partly restores” and the “effect on pNF size” value [11, 22] was “reduces”. The “effect on proliferation (Ki67+ cells) within the tumors” value ([11]; mouse, in vivo) was “reduces”.
With CC[C@H](C)C(=O)O[C@H]1C[C@@H](C)C=C2C=C[C@H](C)[C@H](CC[C@@H]3C[C@@H](O)CC(=O)O3)[C@H]21 [lovastatin] the “effect on midkine expression in the RGC layer of retinae” value [9] was “decreased; also recorded: reduced”.
In the case of NC(=O)c1cn(Cc2c(F)cccc2F)nn1 [rufinamide], the “effect on Mdk (Midkine transcript) levels / Midkine expression” value [12] is reported as “reduces” and the “effect on neuronal excitability” value [13] is reported as “reduces”.
With “COL1A2: collagen-1A2; neurofibroma mitogen produced by peripheral neurons, applied to Schwann cells and DRG-NSCs” the “proliferation, fold increase in Ki67+ cells” value ([14]; COL1A2 12.5 μg/mL) was 2.5-2.9 fold, the “proliferation, fold increase in Ki67+ cells” value ([15]; COL1A2 12.5 μg/mL) was 2.5-2.9 fold and the “effect on COL1A2 RNA expression” value [16] was “increased”. For the same compound, the “effect on COL1A2 RNA expression” value [17] was “increased”.
With ZD7288 the “RGC neuron midkine production, fold increase” value [5] was 14-15 fold, the “effect on midkine production” value [5] was “increased” and the “effect on midkine expression / secretion” value [6] was “increases”. The “DRG Col1a2 secretion, fold increase” value [7] was 2-2.8 fold, the “effect on Col1a2 secretion” value [7] was “increases” and the “effect on Adam10 transcript expression” value [18] was “did not alter”. For the same compound, the “effect on Nlgn3 transcript expression” value [18] was “did not alter”.
In the case of collagenase, the “effect on the increase in proliferation conferred by NF1-mutant sensory neuron CM or COL1A2” value ([14]; collagenase) is reported as “completely abrogated” and the “effect on the increase in proliferation conferred by NF1-mutant sensory neuron CM or COL1A2” value ([15]; collagenase) is reported as “completely abrogated”.
